Like-named read-outs stand apart in the source and are kept apart here.
Columns and labels:
Assay in all cases: Eurofins KINOMEscan profiling, 97 kinases
[1] = biological target: 97 kinases (kinase named in endpoint) (Homo sapiens, UniProt O14757); conditions: read-out: % Ctrl, CHEK1
[2] = biological target: 97 kinases (kinase named in endpoint) (Homo sapiens, UniProt O14920); conditions: read-out: % Ctrl, IKK-beta
[3] = biological target: 97 kinases (kinase named in endpoint) (Homo sapiens, UniProt O14965); conditions: read-out: % Ctrl, AURKA
Sequence of 97 kinases (kinase named in endpoint) (Homo sapiens, UniProt O14965) (O14965 whole entry): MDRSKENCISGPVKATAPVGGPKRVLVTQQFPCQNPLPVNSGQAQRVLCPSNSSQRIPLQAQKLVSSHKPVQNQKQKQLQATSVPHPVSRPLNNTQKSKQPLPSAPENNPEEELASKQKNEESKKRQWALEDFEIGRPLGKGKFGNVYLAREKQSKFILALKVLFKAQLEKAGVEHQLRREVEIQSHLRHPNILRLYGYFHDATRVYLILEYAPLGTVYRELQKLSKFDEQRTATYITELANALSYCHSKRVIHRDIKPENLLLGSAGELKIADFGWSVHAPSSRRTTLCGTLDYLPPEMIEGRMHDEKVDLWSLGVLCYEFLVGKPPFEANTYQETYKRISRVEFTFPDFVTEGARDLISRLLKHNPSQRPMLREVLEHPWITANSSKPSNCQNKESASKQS

[4] = biological target: 97 kinases (kinase named in endpoint) (Homo sapiens, UniProt O75116); conditions: read-out: % Ctrl, ROCK2
[5] = biological target: 97 kinases (kinase named in endpoint) (Homo sapiens, UniProt P00519)
[6] = biological target: 97 kinases (kinase named in endpoint) (Homo sapiens, UniProt P00519, E255K); conditions: read-out: % Ctrl, ABL1(E255K)-phosphorylated
[7] = biological target: 97 kinases (kinase named in endpoint) (Homo sapiens, UniProt P00519, T315I); conditions: read-out: % Ctrl, ABL(T315I)-phosphorylated
[8] = biological target: 97 kinases (kinase named in endpoint) (Homo sapiens, UniProt P07949); conditions: read-out: % Ctrl, RET
[9] = biological target: 97 kinases (kinase named in endpoint) (Homo sapiens, UniProt P10721); conditions: read-out: % Ctrl, KIT
[10] = biological target: 97 kinases (kinase named in endpoint) (Homo sapiens, UniProt P31749); conditions: read-out: % Ctrl, AKT1
[11] = biological target: 97 kinases (kinase named in endpoint) (Homo sapiens, UniProt P36896); conditions: read-out: % Ctrl, ACVR1B
Sequence of 97 kinases (kinase named in endpoint) (Homo sapiens, UniProt P36896) (P36896 24-505): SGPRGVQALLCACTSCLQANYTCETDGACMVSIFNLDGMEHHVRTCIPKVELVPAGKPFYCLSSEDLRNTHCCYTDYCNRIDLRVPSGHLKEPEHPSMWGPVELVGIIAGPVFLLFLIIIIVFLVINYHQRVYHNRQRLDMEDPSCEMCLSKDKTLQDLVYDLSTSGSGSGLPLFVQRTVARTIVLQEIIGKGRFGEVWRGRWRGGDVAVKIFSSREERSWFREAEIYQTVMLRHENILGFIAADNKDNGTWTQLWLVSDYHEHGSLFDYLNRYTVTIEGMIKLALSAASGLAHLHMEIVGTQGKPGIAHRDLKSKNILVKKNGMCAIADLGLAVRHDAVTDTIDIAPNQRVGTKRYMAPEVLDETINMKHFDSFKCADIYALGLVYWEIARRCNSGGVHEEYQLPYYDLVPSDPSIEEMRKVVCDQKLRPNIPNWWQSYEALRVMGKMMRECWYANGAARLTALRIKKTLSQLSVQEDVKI

[12] = biological target: 97 kinases (kinase named in endpoint) (Homo sapiens, UniProt P43403); conditions: read-out: % Ctrl, ZAP70
Sequence of 97 kinases (kinase named in endpoint) (Homo sapiens, UniProt P43403) (P43403 whole entry): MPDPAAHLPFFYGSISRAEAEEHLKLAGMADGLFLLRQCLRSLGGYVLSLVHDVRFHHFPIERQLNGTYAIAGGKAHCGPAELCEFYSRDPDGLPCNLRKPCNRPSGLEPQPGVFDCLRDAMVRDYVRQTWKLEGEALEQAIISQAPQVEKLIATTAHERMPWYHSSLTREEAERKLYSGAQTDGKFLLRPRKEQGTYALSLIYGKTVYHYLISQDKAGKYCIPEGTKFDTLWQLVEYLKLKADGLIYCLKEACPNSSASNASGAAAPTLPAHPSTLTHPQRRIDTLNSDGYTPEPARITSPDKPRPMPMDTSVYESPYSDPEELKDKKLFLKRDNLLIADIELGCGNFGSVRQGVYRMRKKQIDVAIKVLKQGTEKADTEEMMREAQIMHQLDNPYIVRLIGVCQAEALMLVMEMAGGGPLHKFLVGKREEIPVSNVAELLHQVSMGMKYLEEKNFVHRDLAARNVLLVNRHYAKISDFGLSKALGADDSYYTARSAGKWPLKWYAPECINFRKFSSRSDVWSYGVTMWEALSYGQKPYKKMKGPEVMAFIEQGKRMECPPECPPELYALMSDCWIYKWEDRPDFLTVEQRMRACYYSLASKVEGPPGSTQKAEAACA

[13] = biological target: 97 kinases (kinase named in endpoint) (Homo sapiens, UniProt P45983); conditions: read-out: % Ctrl, JNK1
[14] = biological target: 97 kinases (kinase named in endpoint) (Homo sapiens, UniProt P45984); conditions: read-out: % Ctrl, JNK2
Sequence of 97 kinases (kinase named in endpoint) (Homo sapiens, UniProt P45984) (P45984 whole entry): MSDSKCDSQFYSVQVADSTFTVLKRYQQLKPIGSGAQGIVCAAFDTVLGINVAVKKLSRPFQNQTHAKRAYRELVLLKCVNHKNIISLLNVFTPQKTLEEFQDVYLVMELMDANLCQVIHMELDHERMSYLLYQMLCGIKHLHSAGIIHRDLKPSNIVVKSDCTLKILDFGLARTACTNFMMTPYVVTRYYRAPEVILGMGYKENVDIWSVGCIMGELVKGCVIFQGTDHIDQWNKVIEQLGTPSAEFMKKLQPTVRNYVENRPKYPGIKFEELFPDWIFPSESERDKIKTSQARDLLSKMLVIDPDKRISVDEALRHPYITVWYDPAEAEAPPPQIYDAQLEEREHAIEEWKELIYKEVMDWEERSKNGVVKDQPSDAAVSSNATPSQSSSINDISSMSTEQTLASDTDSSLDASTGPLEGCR

[15] = biological target: 97 kinases (kinase named in endpoint) (Homo sapiens, UniProt P48730); conditions: read-out: % Ctrl, CSNK1D
Sequence of 97 kinases (kinase named in endpoint) (Homo sapiens, UniProt P48730) (P48730 whole entry): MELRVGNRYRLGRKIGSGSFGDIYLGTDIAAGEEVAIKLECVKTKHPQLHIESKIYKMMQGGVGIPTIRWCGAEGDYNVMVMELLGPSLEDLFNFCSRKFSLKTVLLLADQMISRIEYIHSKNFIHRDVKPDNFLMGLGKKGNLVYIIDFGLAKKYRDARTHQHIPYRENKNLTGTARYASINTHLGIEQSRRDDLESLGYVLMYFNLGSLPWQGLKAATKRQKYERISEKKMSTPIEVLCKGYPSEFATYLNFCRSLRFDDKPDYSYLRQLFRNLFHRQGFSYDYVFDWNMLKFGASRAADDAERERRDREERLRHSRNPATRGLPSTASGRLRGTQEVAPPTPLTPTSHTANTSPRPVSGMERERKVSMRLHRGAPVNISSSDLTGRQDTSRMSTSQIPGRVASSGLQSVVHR

[16] = biological target: 97 kinases (kinase named in endpoint) (Homo sapiens, UniProt P53779); conditions: read-out: % Ctrl, JNK3
[17] = biological target: 97 kinases (kinase named in endpoint) (Homo sapiens, UniProt P78368); conditions: read-out: % Ctrl, CSNK1G2
[18] = biological target: 97 kinases (kinase named in endpoint) (Homo sapiens, UniProt Q00526); conditions: read-out: % Ctrl, CDK3
Sequence of 97 kinases (kinase named in endpoint) (Homo sapiens, UniProt Q00526) (Q00526 whole entry): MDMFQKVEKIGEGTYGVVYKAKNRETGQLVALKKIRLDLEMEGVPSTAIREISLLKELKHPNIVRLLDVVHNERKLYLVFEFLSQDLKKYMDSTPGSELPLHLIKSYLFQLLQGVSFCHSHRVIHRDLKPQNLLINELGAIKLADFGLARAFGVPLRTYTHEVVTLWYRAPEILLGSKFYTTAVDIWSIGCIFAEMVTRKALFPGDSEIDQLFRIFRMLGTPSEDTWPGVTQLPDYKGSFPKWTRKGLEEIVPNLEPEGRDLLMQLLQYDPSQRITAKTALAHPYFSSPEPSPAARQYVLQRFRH

[19] = biological target: 97 kinases (kinase named in endpoint) (Homo sapiens, UniProt Q02750); conditions: read-out: % Ctrl, MEK1
[20] = biological target: 97 kinases (kinase named in endpoint) (Homo sapiens, UniProt Q06187); conditions: read-out: % Ctrl, BTK
[21] = biological target: 97 kinases (kinase named in endpoint) (Homo sapiens, UniProt Q13153); conditions: read-out: % Ctrl, PAK1
[22] = biological target: 97 kinases (kinase named in endpoint) (Homo sapiens, UniProt Q16539); conditions: read-out: % Ctrl, p38-alpha
[23] = biological target: 97 kinases (kinase named in endpoint) (Homo sapiens, UniProt Q8IYT8); conditions: read-out: % Ctrl, ULK2
[24] = biological target: 97 kinases (kinase named in endpoint) (Homo sapiens, UniProt Q9BVS4); conditions: read-out: % Ctrl, RIOK2
Sequence of 97 kinases (kinase named in endpoint) (Homo sapiens, UniProt Q9BVS4) (Q9BVS4 whole entry): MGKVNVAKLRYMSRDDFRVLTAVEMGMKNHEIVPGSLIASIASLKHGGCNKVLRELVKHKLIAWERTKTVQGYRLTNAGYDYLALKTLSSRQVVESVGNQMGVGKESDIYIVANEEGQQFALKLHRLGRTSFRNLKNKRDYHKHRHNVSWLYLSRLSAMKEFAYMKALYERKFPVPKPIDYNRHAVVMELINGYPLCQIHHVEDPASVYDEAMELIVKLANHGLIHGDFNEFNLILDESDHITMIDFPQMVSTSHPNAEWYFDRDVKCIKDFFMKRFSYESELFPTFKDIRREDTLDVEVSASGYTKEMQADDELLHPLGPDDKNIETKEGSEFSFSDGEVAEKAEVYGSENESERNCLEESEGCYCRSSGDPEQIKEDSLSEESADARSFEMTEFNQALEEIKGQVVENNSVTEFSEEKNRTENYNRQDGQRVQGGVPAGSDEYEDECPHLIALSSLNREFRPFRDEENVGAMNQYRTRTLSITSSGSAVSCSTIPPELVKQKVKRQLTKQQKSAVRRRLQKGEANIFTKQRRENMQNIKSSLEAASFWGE

[25] = biological target: 97 kinases (kinase named in endpoint) (Homo sapiens, UniProt Q9P1W9); conditions: read-out: % Ctrl, PIM2
[26] = biological target: 97 kinases (kinase named in endpoint) (Homo sapiens, UniProt Q9UM73); conditions: read-out: % Ctrl, ALK
[27] = biological target: 97 kinases (kinase named in endpoint) (Homo sapiens, UniProt Q9UPE1); conditions: read-out: % Ctrl, SRPK3
Sequence of 97 kinases (kinase named in endpoint) (Homo sapiens, UniProt Q9UPE1) (Q9UPE1 whole entry): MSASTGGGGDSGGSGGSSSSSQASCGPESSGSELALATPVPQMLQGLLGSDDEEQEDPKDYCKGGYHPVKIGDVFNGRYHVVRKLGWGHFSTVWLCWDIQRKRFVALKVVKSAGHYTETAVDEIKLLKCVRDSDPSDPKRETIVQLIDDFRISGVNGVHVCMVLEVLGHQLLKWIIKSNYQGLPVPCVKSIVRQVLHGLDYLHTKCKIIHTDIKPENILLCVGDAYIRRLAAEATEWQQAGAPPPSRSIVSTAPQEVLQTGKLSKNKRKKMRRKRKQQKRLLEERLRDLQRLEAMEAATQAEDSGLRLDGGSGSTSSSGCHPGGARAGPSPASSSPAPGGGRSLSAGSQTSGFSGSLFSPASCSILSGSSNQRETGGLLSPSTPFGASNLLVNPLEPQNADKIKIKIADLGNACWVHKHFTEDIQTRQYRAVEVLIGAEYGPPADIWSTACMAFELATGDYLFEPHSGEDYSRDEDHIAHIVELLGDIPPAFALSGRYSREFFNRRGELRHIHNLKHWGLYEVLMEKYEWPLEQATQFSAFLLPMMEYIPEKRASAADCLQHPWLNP

[28] = biological target: 97 kinases (kinase named in endpoint) (Homo sapiens, UniProt Q9Y6R4); conditions: read-out: % Ctrl, MAP3K4
[29] = read-out: % Ctrl, ABL1-nonphosphorylated
[30] = read-out: % Ctrl, ABL1-phosphorylated

Sequence of 97 kinases (kinase named in endpoint) (Homo sapiens, UniProt O14920) (O14920 whole entry): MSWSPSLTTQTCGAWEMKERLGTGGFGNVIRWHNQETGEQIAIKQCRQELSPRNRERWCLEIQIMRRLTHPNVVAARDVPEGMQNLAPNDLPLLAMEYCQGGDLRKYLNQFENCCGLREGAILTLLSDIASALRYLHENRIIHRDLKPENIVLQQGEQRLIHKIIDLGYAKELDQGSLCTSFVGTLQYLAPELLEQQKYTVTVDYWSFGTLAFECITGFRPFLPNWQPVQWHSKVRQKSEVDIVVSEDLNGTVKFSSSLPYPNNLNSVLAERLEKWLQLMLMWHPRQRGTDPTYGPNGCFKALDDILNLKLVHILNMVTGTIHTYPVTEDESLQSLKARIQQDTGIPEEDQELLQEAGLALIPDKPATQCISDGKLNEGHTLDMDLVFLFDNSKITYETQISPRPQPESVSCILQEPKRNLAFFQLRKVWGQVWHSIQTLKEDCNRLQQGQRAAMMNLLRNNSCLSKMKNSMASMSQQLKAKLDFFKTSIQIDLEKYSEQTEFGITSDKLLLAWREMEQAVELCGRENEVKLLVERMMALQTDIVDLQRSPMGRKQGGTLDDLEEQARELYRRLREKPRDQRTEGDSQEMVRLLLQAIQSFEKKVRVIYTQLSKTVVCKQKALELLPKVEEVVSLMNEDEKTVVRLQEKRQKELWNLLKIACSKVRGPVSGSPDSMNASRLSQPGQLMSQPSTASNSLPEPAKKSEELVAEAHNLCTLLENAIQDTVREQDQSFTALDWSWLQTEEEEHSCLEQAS
Sequence of 97 kinases (kinase named in endpoint) (Homo sapiens, UniProt O14757) (O14757 whole entry): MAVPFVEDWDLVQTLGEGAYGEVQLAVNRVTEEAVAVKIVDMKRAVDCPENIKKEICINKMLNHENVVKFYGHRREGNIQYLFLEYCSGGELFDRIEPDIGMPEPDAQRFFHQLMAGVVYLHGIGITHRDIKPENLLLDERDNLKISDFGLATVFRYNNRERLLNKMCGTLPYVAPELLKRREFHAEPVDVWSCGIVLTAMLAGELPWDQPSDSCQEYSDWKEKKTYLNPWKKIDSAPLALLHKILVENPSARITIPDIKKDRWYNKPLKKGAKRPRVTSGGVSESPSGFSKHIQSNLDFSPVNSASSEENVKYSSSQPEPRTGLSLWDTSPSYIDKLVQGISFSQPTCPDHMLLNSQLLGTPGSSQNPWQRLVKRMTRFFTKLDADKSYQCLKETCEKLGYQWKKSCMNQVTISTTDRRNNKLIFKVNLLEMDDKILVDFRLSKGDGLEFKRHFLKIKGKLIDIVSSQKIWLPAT

| SMILES | remaining binding at 1 µM [1] | remaining binding at 1 µM [2] | remaining binding at 1 µM [3] | remaining binding at 1 µM [4] | remaining binding at 1 µM [5, 29] | remaining binding at 1 µM [5, 30] | remaining binding at 1 µM [6] | remaining binding at 1 µM [7] | remaining binding at 1 µM [8] | remaining binding at 1 µM [9] | remaining binding at 1 µM [10] | remaining binding at 1 µM [11] | remaining binding at 1 µM [12] | remaining binding at 1 µM [13] | remaining binding at 1 µM [14] | remaining binding at 1 µM [15] | remaining binding at 1 µM [16] | remaining binding at 1 µM [17] | remaining binding at 1 µM [18] | remaining binding at 1 µM [19] | also measured |
| --- | --- | --- | --- | --- | --- | --- | --- | --- | --- | --- | --- | --- | --- | --- | --- | --- | --- | --- | --- | --- | --- |
| CNC(=O)c1ccc(Nc2ncc(C(F)(F)F)c(NCc3nccnc3N(C)S(C)(=O)=O)n2)cc1 [defactinib] | 99% | 100% | 3.9% | 43% | 37% | 51% | 82% | 4.9% | 12% | 47% | 100% | 83% | 95% | 61% | 52% | 93% | 90% | 39% | 62% | 83% | remaining binding at 1 µM [20]: 100%; remaining binding at 1 µM [21]: 65%; remaining binding at 1 µM [22]: 100%; remaining binding at 1 µM [23]: 28%; remaining binding at 1 µM [24]: 50%; remaining binding at 1 µM [25]: 100%; remaining binding at 1 µM [26]: 32%; remaining binding at 1 µM [27]: 47%; remaining binding at 1 µM [28]: 69% |
| CCCCCCCCCCCCCC(=O)N[C@@H](CC(N)=O)C(=O)N[C@@H](CC(C)C)C(=O)N[C@]1(C)CCCCCCC=CCCC[C@@](C)(C(=O)N[C@@H](CCC(=O)O)C(=O)N[C@@H](CC(C)C)C(=O)N[C@@H](CC(N)=O)C(N)=O)NC(=O)[C@H](CC(C)C)NC(=O)[C@H](CC(C)C)NC(=O)[C@H](CCCNC(=N)N)NC(=O)[C@H](CC(=O)O)NC(=O)[C@H](CC(C)C)NC(=O)[C@H](CCC(=O)O)NC1=O [compound 2012] | 98% | 100% | 100% | 100% | 56% | 80% | 70% | 100% | 99% | 96% | 100% | 81% | 96% | 97% | 100% | 97% | 100% | 99% | 89% | 94% | remaining binding at 1 µM [20]: 100%; remaining binding at 1 µM [21]: 100%; remaining binding at 1 µM [22]: 98%; remaining binding at 1 µM [23]: 100%; remaining binding at 1 µM [24]: 91%; remaining binding at 1 µM [25]: 100%; remaining binding at 1 µM [26]: 100%; remaining binding at 1 µM [27]: 79%; remaining binding at 1 µM [28]: 90% |

— article PMC11871066, “Structure-based discovery of hydrocarbon-stapled paxillin peptides that block FAK scaffolding in cancer” (Nature Communications, 2025)
